Data: US20100273772A1, “Bisaryl Alkynylamides as Negative Allosteric Modulators of Metabotropic Glutamate Receptor 5 (MGLUR5)” (Wyeth LLC, priority 2009, published 2010)

Experiments:
[1] = molecular target: T1, metabotropic glutamate receptor 5 (Rattus norvegicus, UniProt P31424); experiment: FLIPR Calcium 3 fluorescence-based functional assay of intracellular calcium, mGluR5 antagonist activity; assay type: cell-based; details: inhibition of glutamate (EC90, ~50 uM) stimulated calcium levels, mGluR5 HEK-293 cells; read-out: mGluR5 FLIPR MP Antagonist DR IC50
T1 construct: expressed in transfected cells; host or cells: HEK-293
T1 sequence (P31424 21-1203): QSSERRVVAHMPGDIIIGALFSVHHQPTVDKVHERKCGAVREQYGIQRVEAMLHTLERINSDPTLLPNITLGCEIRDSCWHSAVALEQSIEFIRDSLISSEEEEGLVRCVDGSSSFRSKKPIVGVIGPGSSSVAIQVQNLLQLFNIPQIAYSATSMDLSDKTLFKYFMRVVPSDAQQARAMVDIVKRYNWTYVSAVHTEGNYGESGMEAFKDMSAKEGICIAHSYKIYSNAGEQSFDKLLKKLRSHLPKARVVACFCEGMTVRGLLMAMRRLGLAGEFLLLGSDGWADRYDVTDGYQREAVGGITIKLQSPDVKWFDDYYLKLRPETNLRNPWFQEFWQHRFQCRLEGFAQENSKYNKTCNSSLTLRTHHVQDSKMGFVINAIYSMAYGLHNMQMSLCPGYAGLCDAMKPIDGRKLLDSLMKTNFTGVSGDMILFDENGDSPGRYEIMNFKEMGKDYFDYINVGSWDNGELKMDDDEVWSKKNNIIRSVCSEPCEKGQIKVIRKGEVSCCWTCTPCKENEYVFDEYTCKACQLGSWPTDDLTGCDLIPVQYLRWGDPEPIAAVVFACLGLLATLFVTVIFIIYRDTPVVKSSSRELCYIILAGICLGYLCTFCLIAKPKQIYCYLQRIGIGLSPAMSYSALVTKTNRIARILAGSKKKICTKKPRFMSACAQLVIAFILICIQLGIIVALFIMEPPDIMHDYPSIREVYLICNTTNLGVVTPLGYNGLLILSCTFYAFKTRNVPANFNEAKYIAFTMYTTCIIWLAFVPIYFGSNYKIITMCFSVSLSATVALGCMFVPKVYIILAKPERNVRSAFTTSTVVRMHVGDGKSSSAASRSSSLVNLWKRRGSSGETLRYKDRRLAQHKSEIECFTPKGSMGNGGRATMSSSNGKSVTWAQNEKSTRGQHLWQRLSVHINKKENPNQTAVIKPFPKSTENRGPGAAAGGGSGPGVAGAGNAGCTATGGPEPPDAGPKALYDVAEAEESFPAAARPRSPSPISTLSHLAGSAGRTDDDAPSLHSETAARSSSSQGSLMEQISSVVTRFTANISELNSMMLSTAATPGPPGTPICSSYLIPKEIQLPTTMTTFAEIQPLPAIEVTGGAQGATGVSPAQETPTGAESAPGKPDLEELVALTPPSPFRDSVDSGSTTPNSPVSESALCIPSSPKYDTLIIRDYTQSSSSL
Excerpt: (§1) where [L]=concentration of free radioligand and Kd=dissociation constant of radioligand for the receptor. TITLE: Identification of metabotropic glutamate receptor 5 antagonists using a stable, sensitive fluorescence-based screening system PURPOSE: The aim of the research presented here was to develop a robust functional assay to measure changes in intracellular calcium, with the goal of identifying potent mGluR5 antagonists.
The FLIPR Calcium 3 Assay Kit is designed to work with many cell types, both adherent and non-adherent. Optimal cell conditions for the FLIPR Calcium 3 Assay Kit require the creation of a confluent cell monolayer before placing the plates in FLIPR or FlexStation. In general, we start with 50,000 mGluR5 HEK-293 cells/well for a 96-well plate. For adherent cells, seeding cells overnight with a plating volume of 100 μL/well worked for 96-well plates.
Remove cell plates from the incubator. Remove the supernatant medium. Add 180 ul of Loading Buffer to each well (for 96-well plates). HBSS buffer component B) pipette 100 mL of 10× Hank's Balanced Salt Solution and 20 mL of 1M Hepes buffer
Incubate cell plates for 1 hour at 37° C. and then keep the plates at room temperature until used.
After incubation, transfer the plates directly to FLIPR and begin the calcium assay as described in the FLIPR system manual. For a signal test, a starting average count of ˜10,000 is recommended. Recommended experimental setup parameters are as follows. Faster addition speeds can lead to better mixing of compounds and lower signal variance across the plate.
Test or reference compound is added to the 96-well plate (manually). […] Relative Fluorescence Units (RFUs) are recorded over a given time period (stated above) depending on the platform system used.
For antagonists, results are expressed as % inhibition of glutamate stimulated Calcium levels. IC50 values were calculated by Prism GraphPad using a 4-parameter logistic equation. IC50 values are calculated using GraphPad by fitting to a 1 site-model.

rat mGluR5 receptor = molecular target: T2, rat mGluR5 receptor (Rattus norvegicus, UniProt P31424); experiment: [3H]-MPEP binding HEK-293 cell membranes expressing a rat mGluR5 receptor; details: displacement of 4 nM [3H]-MPEP, HEK-293 cell membranes expressing rat mGluR5, 60 minute at room temperature; read-out: mGluR5 Ligand Binding DR Ki
T2 construct: expressed in transfected cells; host or cells: HEK-293
T2 sequence (P31424 21-1203): as above
Experimental: TITLE: [^3H]-MPEP binding HEK-293 cell membranes expressing a rat mGluR5 receptor. PURPOSE: To identify high affinity compounds at the rat mGluR5 receptor based on their ability to displace the mGluR5 negative allosteric modulator, MPEP.
mGluR5 expressing HEK-293 cells are scraped off the plate, transferred to centrifuge tubes, and washed twice by centrifugation (2000 rpm for 10 min., 4° C.) in buffer (50 mM Tris pH 7.5). The resulting pellets are aliquoted and placed at −80° C. On the day of assay, the cells are thawed on ice, and resuspended in buffer. The binding assay is performed in a 96 well microtiter plate in a total volume of 250 μL. Non-specific binding is determined in the presence of 10 μM MPEP. Binding reaction includes a final radioligand [^3H]-MPEP concentration of 4 nM and 12-25 ug membrane protein per well. Following a 60 minute incubation at room temperature, the reaction is terminated by the addition of ice cold buffer and rapid filtration through a GF/B filter presoaked for 30 minutes in 0.5% PEI. Compounds are initially tested in a single point assay to determine percent inhibition at 10 μM. Subsequently, Ki values are determined for compounds defined to be active.
% inhibition and Ki values generated by GraphPad Prism and Excel Fit. IC50 values are calculated using GraphPad by fitting to a 1 or 2 site-binding model. Ki values are calculated from the apparent IC50 values using the Cheng-Prussof equation:
as §1

Compound `O=C(c1ccc(Cl)c(C#Cc2ccccn2)c1)N1CCc2ncccc2C1` [Example 68, 6-{[4-chloro-3-(pyridin-2-ylethynyl)phenyl]carbonyl}-5,6,7,8-tetrahydro-1,6-naphthyridine] has an IC50 [1] of 26 nM and a Ki (rat mGluR5 receptor) of 4 nM.
With `CCOc1ccc(C(=O)N2CCc3ccccc3C2)cc1C#Cc1ccccn1` [Example 75, 2-[4-Ethoxy-3-(pyridin-2-ylethynyl)benzoyl]-1,2,3,4-tetrahydroisoquinoline] the IC50 [1] was 11 nM and the Ki (rat mGluR5 receptor) was 3 nM.
Work on `O=C(c1ccc(OCC2CC2)c(C#Cc2ccccn2)c1)N1CCc2ccccc2C1` [Example 79, 2-{[4-(Cyclopropylmethoxy)-3-(pyridin-2-ylethynyl)phenyl]carbonyl}-1,2,3,4-tetrahydroisoquinoline] yielded an IC50 [1] of 34 nM and a Ki (rat mGluR5 receptor) of 23 nM.
Work on `COc1ccc(C(=O)N2CCc3ncccc3C2)cc1C#Cc1ccccn1` [Example 39, 6-[4-methoxy-3-(pyridin-2-ylethynyl)benzoyl]-5,6,7,8-tetrahydro-1,6-naphthyridine] yielded an IC50 [1] of 26 nM and a Ki (rat mGluR5 receptor) of 23 nM.
`O=C(c1ccc(Cl)c(C#Cc2ccccn2)c1)N1CCc2c(F)cccc2C1` [Example 64, 2-{[4-chloro-3-(pyridin-2-ylethynyl)phenyl]carbonyl}-5-fluoro-1,2,3,4-tetrahydroisoquinoline] was tested, and the IC50 [1] was 16 nM and the Ki (rat mGluR5 receptor) was 0.4 nM.
`COc1ccc(C(=O)N2Cc3ccncc3C2)cc1C#Cc1ccccn1` [Example 46, 2-[4-methoxy-3-(pyridin-2-ylethynyl)benzoyl]-2,3-dihydro-1H-pyrrolo[3,4-c]pyridine] was tested, and the IC50 [1] was 18 nM and the Ki (rat mGluR5 receptor) was 31 nM.
Compound `O=C(c1ccc(Cl)c(C#Cc2ccccn2)c1)N1Cc2cccnc2C1` [Example 65, 6-{[4-chloro-3-(pyridin-2-ylethynyl)phenyl]carbonyl}-6,7-dihydro-5H-pyrrolo[3,4-b]pyridine] has an IC50 [1] of 18 nM and a Ki (rat mGluR5 receptor) of 3 nM.
For `Cc1ccc(C(=O)N2CCc3nc[nH]c3C2)cc1C#Cc1ccccn1` [Example 87, 5-{[4-methyl-3-(pyridin-2-ylethynyl)phenyl]carbonyl}-4,5,6,7-tetrahydro-3H-imidazo[4,5-c]pyridine], the IC50 [1] was 2 nM and the Ki (rat mGluR5 receptor) was 14 nM.
In the case of `COc1ccc(C(=O)N2CCc3ccc(C#N)cc3C2)cc1C#Cc1ccccn1` [Example 11, 2-[4-methoxy-3-(pyridin-2-ylethynyl)benzoyl]-1,2,3,4-tetrahydroisoquinoline-7-carbonitrile], the IC50 [1] is reported as 130 nM and the Ki (rat mGluR5 receptor) is reported as 11 nM.
`COc1ccc(C(=O)N2CCc3ccccc3C2c2ccco2)cc1C#Cc1ccccn1` (centres unmarked) [Example 27, 1-(2-furyl)-2-[4-methoxy-3-(pyridin-2-ylethynyl)benzoyl]-1,2,3,4-tetrahydroisoquinoline] gave an IC50 [1] of 40 nM and a Ki (rat mGluR5 receptor) of 21 nM.
Compound `Cc1ccc(C(=O)N2Cc3cccnc3C2)cc1C#Cc1ccccn1` [Example 91, 6-{[4-methyl-3-(pyridin-2-ylethynyl)phenyl]carbonyl}-6,7-dihydro-5H-pyrrolo[3,4-b]pyridine] has an IC50 [1] of 4 nM and a Ki (rat mGluR5 receptor) of 6 nM.
Work on `Cc1ccc(C(=O)N2CCc3ncccc3C2)cc1C#Cc1ccccn1` [Example 85, 6-{[4-Methyl-3-(pyridin-2-ylethynyl)phenyl]carbonyl}-5,6,7,8-tetrahydro-1,6-naphthyridine] yielded an IC50 [1] of 6 nM and a Ki (rat mGluR5 receptor) of 4 nM.
Compound `COc1ccc(C(=O)N2CCc3ncc(Cl)cc3C2)cc1C#Cc1ccccn1` [Example 51, 3-chloro-6-{[4-methoxy-3-(pyridin-2-ylethynyl)phenyl]carbonyl}-5,6,7,8-tetrahydro-1,6-naphthyridine] has an IC50 [1] of 30 nM and a Ki (rat mGluR5 receptor) of 13 nM.
`O=C(c1ccc(C(F)(F)F)c(C#Cc2ccccn2)c1)N1CCc2[nH]ncc2C1` [Example 100, 5-{[3-(Pyridin-2-ylethynyl)-4-(trifluoromethyl)phenyl]carbonyl}-4,5,6,7-tetrahydro-1H-pyrazolo[4,3-c]pyridine] showed an IC50 [1] of 5 nM and a Ki (rat mGluR5 receptor) of 4 nM.
`O=C(c1ccc(C(F)(F)F)c(C#Cc2ccccn2)c1)N1CCc2ncccc2C1` [Example 98, 6-{[3-(Pyridin-2-ylethynyl)-4-(trifluoromethyl)phenyl]carbonyl}-5,6,7,8-tetrahydro-1,6-naphthyridine] showed an IC50 [1] of 7 nM and a Ki (rat mGluR5 receptor) of 4 nM.
Work on `COc1ccc(C(=O)N2CCc3ccccc3C2c2cccs2)cc1C#Cc1ccccn1` (centres unmarked) [Example 22, 2-[4-methoxy-3-(pyridin-2-ylethynyl)benzoyl]-1-(2-thienyl)-1,2,3,4-tetrahydroisoquinoline] yielded an IC50 [1] of 220 nM and a Ki (rat mGluR5 receptor) of 22 nM.
With `COc1ccc(C(=O)N2CCc3nc(C)sc3C2)cc1C#Cc1ccccn1` [Example 48, 5-{[4-methoxy-3-(pyridin-2-ylethynyl)phenyl]carbonyl}-2-methyl-4,5,6,7-tetrahydro[1,3]thiazolo[5,4-c]pyridine] the IC50 [1] was 42 nM and the Ki (rat mGluR5 receptor) was 23 nM.
`COc1ccc(C(=O)N2Cc3cccc(Cl)c3C2)cc1C#Cc1ccccn1` [Example 38, 4-chloro-2-[4-methoxy-3-(pyridin-2-ylethynyl)benzoyl]isoindoline] was tested, and the IC50 [1] was 51 nM and the Ki (rat mGluR5 receptor) was 2 nM.
In the case of `O=C(c1ccc(Cl)c(C#Cc2ccccn2)c1)N1CCc2ccccc2C1` [Example 61, 2-[4-Chloro-3-(pyridin-2-ylethynyl)benzoyl]-1,2,3,4-tetrahydroisoquinoline], the IC50 [1] is reported as 13 nM and the Ki (rat mGluR5 receptor) is reported as 0.4 nM.
`COc1ccc(C(=O)N2CCc3oc(C)nc3C2)cc1C#Cc1ccccn1` [Example 47, 5-{[4-methoxy-3-(pyridin-2-ylethynyl)phenyl]carbonyl}-2-methyl-4,5,6,7-tetrahydro[1,3]oxazolo[4,5-c]pyridine] showed an IC50 [1] of 33 nM and a Ki (rat mGluR5 receptor) of 30 nM.
With `COc1ccc(C(=O)N2CCc3[nH]cnc3C2)cc1C#Cc1ccccn1` [Example 58, 5-{[4-methoxy-3-(pyridin-2-ylethynyl)phenyl]carbonyl}-4,5,6,7-tetrahydro-1H-imidazo[4,5-c]pyridine] the IC50 [1] was 18 nM and the Ki (rat mGluR5 receptor) was 57 nM.
For `COc1ccc(C(=O)N2Cc3ccc([N+](=O)[O-])cc3C2)cc1C#Cc1ccccn1` [Example 35, 2-[4-methoxy-3-(pyridin-2-ylethynyl)benzoyl]-5-nitroisoindoline], the IC50 [1] was 61 nM and the Ki (rat mGluR5 receptor) was 23 nM.
With `COc1ccc(C(=O)N2Cc3ccc(F)cc3C2)cc1C#Cc1ccccn1` [Example 37, 5-fluoro-2-[4-methoxy-3-(pyridin-2-ylethynyl)benzoyl]isoindoline] the IC50 [1] was 40 nM and the Ki (rat mGluR5 receptor) was 6 nM.
`O=C(c1ccc(C(F)(F)F)c(C#Cc2ccccn2)c1)N1CCc2ccc(Cl)cc2C1` [Example 94, 7-Chloro-2-{[3-(pyridin-2-ylethynyl)-4-(trifluoromethyl)phenyl]carbonyl}-1,2,3,4-tetrahydroisoquinoline] showed an IC50 [1] of 152 nM and a Ki (rat mGluR5 receptor) of 2 nM.
Compound `COc1ccc(C(=O)N2CCc3cc(OC)c(OC)cc3C2)cc1C#Cc1ccccn1` [Example 20, 6,7-dimethoxy-2-[4-methoxy-3-(pyridin-2-ylethynyl)benzoyl]-1,2,3,4-tetrahydroisoquinoline] has an IC50 [1] of 49 nM and a Ki (rat mGluR5 receptor) of 36 nM.
In the case of `COc1ccc(C(=O)N2Cc3ccc(Br)cc3C2)cc1C#Cc1ccccn1` [Example 33, 5-bromo-2-[4-methoxy-3-(pyridin-2-ylethynyl)benzoyl]isoindoline], the IC50 [1] is reported as 173 nM and the Ki (rat mGluR5 receptor) is reported as 2 nM.
For `O=C(c1ccc(C(F)(F)F)c(C#Cc2ccccn2)c1)N1CCc2ccccc2C1` [Example 93, 2-{[3-(Pyridin-2-ylethynyl)-4-(trifluoromethyl)phenyl]carbonyl}-1,2,3,4-tetrahydroisoquinoline], the IC50 [1] was 42 nM and the Ki (rat mGluR5 receptor) was 2 nM.
With `COc1ccc(C(=O)N2CCc3[nH]c4ccccc4c3C2)cc1C#Cc1ccccn1` [Example 12, 2-[4-methoxy-3-(pyridin-2-ylethynyl)benzoyl]-2,3,4,5-tetrahydro-1H-pyrido[4,3-b]indole] the IC50 [1] was > 1000 nM and the Ki (rat mGluR5 receptor) was 8 nM.
